Columns and labels:
Human CCL2 (MCP-1) = test: MCP1 secretion by ELISA after 24 h, PHH model for NASH, Example 2; type: cell-based; conditions: FFA+TNFα
Procedure: (§1) PHH from two healthy human donors (Lonza, TRL) were seeded on day 0 at density of 6e04 cells in 96 well optical microplates (Thermofisher) in hepatocyte plating media (William's E medium, WEM) (Gibco) supplemented with 10% heat-inactivated FBS (Atlanta Bio), 2 mM Glutamax (Gibco), and 0.2% Primocin (InVivoGen) and incubated for 6 hours at 37° C., 5% CO2. After 6 hours, cells were washed twice and incubated overnight at 37° C., 5% CO2 with Hepatocytes defined medium (Corning) supplemented with 2 mM Glutamax (Gibco), and 1× Penicillin/Streptomycin. On day 1, cells were washed twice and incubated for 24 h in the hepatocyte culture media in the same conditions described above.
(§2) On day 2, cells were washed twice with DPBS 1× (Gibco) to remove excess amino acids and maintained in pretreatment media (1×HMDB, a defined custom amino acid concentration based on the mean physiological concentrations in blood, in WEM±supplemental amino acids): • a. Amino acid-free WEM (US Biologicals) supplemented with 11 mM Glucose (Sigma), 0.272 mM Sodium Pyruvate (Sigma), 1× P/S (Gibco) and containing 1×HMDB with no supplemental amino acids; or • b. The same media described above 1×HMDB WEM with supplemental amino acid and amino acid combination treatments at various concentrations. Cells were maintained in the defined media (a. & b.) for 24 hours at 37° C., 5% CO2. The HMDB values are published in the Human Metabolome Database (Wishart D S, Tzur D, Knox C, et al., HMDB: the Human Metabolome Database. Nucleic Acids Res. 2007 January; 35 (Database issue):D521-6. 17202168; which is hereby incorporated by reference in its entirety). Co-Treatment with Free Fatty Acids and Amino Acids Combination
(§3) After 24 h pre-treatment, cells maintained in the pretreatment media±supplemental amino acids (section (a. & b.) described above) were exposed to free fatty acids (FFA) at 250 uM with a ratio of 2:1 (Oleate:Palmitate) supplemented with TNF-α (Thermofisher) at 1 ng/ml. Cells were incubated with the FFAs mixture (FFAs+TNF-α)±supplemental amino acids treatments for 24 hours at 37° C., 5% CO2. After 24 hours incubation, media was removed for cytokine analysis and replaced by fresh media containing the same conditions described above (FFAs mixture±supplemental amino acids treatments). Cells were incubated for an additional 48 hours for a total of 72 hours of FFA and TNF-α stimulation. After 72 hours of incubation, media was removed for albumin and urea analysis and the cells were fixed for nuclei and lipid staining.
Human CCL2 (MCP-1) was measured by ELISA (Human […] DuoSet ELISA, R&D Systems) at 1/20 dilution in 1× Reagent Diluent (Reagent Ancillary Kit 2, R&D Systems). MCP1 data in primary human hepatocytes treated with FFA+TNFα+supplemental amino acids was normalized to 1×HMDB WEM+FFA+TNFα baseline. Data is reported as median fold change from control, statistical analysis was done using t-Test.

[1] = system: primary human hepatocytes; test: Intracellular lipid accumulation after 72 h by fluorescence microscopy, PHH model for NASH, Example 2; type: cell-based; conditions: FFA+TNFα; for Lipid Median (median fold change from control): 72 h
Procedure: as §1, §2, §3
After 72 hours, cells were washed twice in 100 ul PBS 1× (Gibco), fixed with 4% Paraformaldehyde, and washed twice with PBS 1× (100 ul). After fixation, lipids were stained with HCS LipidTOX Red Neutral (Thermofisher Scientific) diluted 1000× and nuclei were stained with Hoechst 3342 (Life Technologies) diluted to 4 ug/ml. The LipidTOX™ neutral lipid stain has an extremely high affinity for neutral lipid droplets that was detected by fluorescence microscopy using a high content imager (Molecular Devices). Data was normalized to the cell concentration determined by nuclei count. Images were analyzed and total lipid area was calculated using granularity module in MetaXpress 6 software. Data is reported as median fold change from control, statistical analysis was done using t-Test.

Albumin = Albumin secretion after 72 h by ELISA, PHH model, Example 2; type: cell-based, human; conditions: FFA+TNFα
Procedure: as §1, §2, §3
Albumin secretion was measured as a functionality test in primary human hepatocytes. Albumin was measured by ELISA (Human Albumin ELISA Quantitation set, Bethyl Laboratories) at 1/200 dilution in the sample diluent (Bethyl Laboratories). Data is reported as median fold change from control, statistical analysis was done using t-Test.

Urea = Urea production after 72 h by urea nitrogen (BUN) colorimetric assay, PHH model, Example 2; type: cell-based, human; conditions: FFA+TNFα
Procedure: as §1, §2, §3
Urea was measured as an indicator of hepatocytes functionality by urea nitrogen direct assay (StanBio). Cell supernatant was added to the BUN color reagent and BUN acid reagent at 1(color):2(acid) ratio. Incubate the cell supernatant with BUN reagent for 12 min at 100° C. then for 5 min at 4° C. Read absorbance at 520 nm. Data was normalized to the control. Data is reported as median fold change from control, statistical analysis was done using t-Test.

Procollagen III = Procollagen III secretion by ELISA, TGFβ1-stimulated hepatic stellate cells, Example 4; type: cell-based, human; conditions: HSC, three donors
Procedure: (§4) Primary human hepatic stellate cells were obtained from Samsara Sciences. Cells from three different donors were grown in Complete HSC Medium to ˜80% confluence in T75 or T150 flasks below passage 10 were seeded into sterile, collagen I coated, 96-well optical plastic microplates (ThermoScientific) and incubated overnight at 37° C., 5% CO2 in a humidified incubator in DMEM with 2% Fetal Bovine Serum and 1% Antimycotic. […] After 24 hours of stimulus, supernatant was removed and used to measure Procollagen III and cells were then washed and fixed with 4% paraformaldehyde for further staining. Procollagen III, an important biomarker of fibrosis was measured by ELISA (Human PCIII Elisa Kit, G-Biosciences) following the manufacturer's recommendations. Fixed cells with 4% paraformaldehyde were permeabilized with 0.1% Triton X-100 then immunostained for alpha SMA and labeled for EdU incorporation.

[2] = system: alpha smooth muscle actin (αSMA); test: HSC activation by alpha SMA immunostaining, TGFβ1-stimulated hepatic stellate cells; type: cell-based, human
Procedure: as §4, with “staining.” for “staining. Procollagen III, an important biomarker of fibrosis was measured by ELISA (Human PCIII Elisa Kit, G-Biosciences) following the manufacturer's recommendations. Fixed cells with 4% paraformaldehyde were permeabilized with 0.1% Triton X-100 then immunostained for alpha SMA and labeled for EdU incorporation.”
Procollagen III, an important biomarker of fibrosis was measured by ELISA (Human PCIII Elisa Kit, G-Biosciences) following the manufacturer's recommendations. Fixed cells with 4% paraformaldehyde were permeabilized with 0.1% Triton X-100 then immunostained for alpha SMA and labeled for EdU incorporation.
Cells were imaged using ImageXpress micro confocal high content imager (Molecular Devices). […] Image analysis was performed using MetaXpress version 6.2.3.733 (Molecular Devices).
Fixed cells immunostained for alpha smooth muscle actin (αSMA) were analyzed and stained area was normalized to total nuclei count. Fold change were calculated relative to the baseline amino acid (1×HMDB) condition stimulated with 3 ng/mL TGFβ1.

[3] = system: primary human hepatocytes; test: Intracellular triglyceride level after 72 h, colorimetric assay, Example 3; type: cell-based; conditions: for triglyceride level (in words): FFAs+TNFα, two healthy donors
Procedure: On day 2, cells were washed twice with DPBS 1× (Gibco) and maintained in: • a. Amino acid-free WEM (US Biologicals) supplemented with 11 mM Glucose (Sigma), 0.272 mM Sodium Pyruvate (Sigma), 1× P/S (Gibco) and containing a defined custom amino acid concentration based on the mean physiological concentrations in blood (1× HMDB WEM (−) supplemental amino acids); or • b. The same media described above 1×HMDB WEM (+) supplemental amino acids treatment dose at a 30× of HMDB amino acid concentration. Cells were maintained in the defined amino acids media (a. & b.) for 24 hours at 37° C., 5% CO2. Co-Treatment with Free Fatty Acids and Various Amino Acids Supplemental Treatments
After 24 h pre-treatment, cells maintained in the same media (a. & b.) described above 1×HMDB±supplemental amino acids were now exposed to free fatty acids (FFA) at 250 uM with a ratio of 2:1 (Oleate:Palmitate) supplemented with TNF-α (Thermofisher) at 1 ng/ml or vehicle. Cells with the FFAs+TNFα mixture±amino acids treatments were incubated for 72 hours at 37° C., 5% CO2 with a media change after the first 24 hours.
After 72 hours, cells were washed once with cold PBS 1× (Gibco), scrapped off and collected into 75 ul of standard diluent (Cayman). Collected cells were vortexed for 1 min at a 2500 rpm speed followed by two times sonication (Elmasonic sonicator) for 1 min each. Supernatants were collected for triglyceride analysis after centrifugation at 1000 rpm for 10 min at 4° C. Intracellular triglyceride level was assessed using triglyceride colorimetric assay kit (Cayman) and following manufacturer's recommendations. Data was normalized to the total amount of protein using Bicinchoninic Acid Protein Assay Kit (Sigma). Data is reported as median fold change from FFAs+TNFα condition, statistical analysis was done using t-Test.

## N=C(N)NCCC[C@H](N)C(=O)O [R, L-arginine]
Human CCL2 (MCP-1); hepatocyte donor 1
  MCP1 secretion (in words): did not reduce MCP1 secretion
[1]; hepatocyte donor 1
  lipid accumulation (in words): did not reduce lipid accumulation
Albumin; hepatocyte donor 1
  albumin secretion (in words): did not reduce albumin secretion
Urea; hepatocyte donor 1
  urea production (in words): induced urea production
Procollagen III
  procollagen III secretion (in words): had no impact on procollagen III secretion
[2]
  alpha SMA stained area (in words): reduced the alpha SMA stained area

## CC(C)C[C@H](N)C(=O)O [L, L-leucine]
Human CCL2 (MCP-1); hepatocyte donor 1
  MCP1 secretion (in words): did not reduce MCP1 secretion
[1]; donor 1, AA Conc. 20X
  Lipid Median (median fold change from control): −0.725
[1]; hepatocyte donor 1
  lipid accumulation (in words): reduced lipid accumulation
Albumin; hepatocyte donor 1
  albumin secretion (in words): decreased albumin production at a higher level than the previously described amino acids
Urea; hepatocyte donor 1
  urea production (in words): No changes in urea production
Procollagen III
  procollagen III secretion (in words): had no impact on procollagen III secretion

## CC(C)[C@H](N)C(=O)O [V, L-Valine]
Human CCL2 (MCP-1); hepatocyte donor 1
  MCP1 secretion (in words): did not reduce MCP1 secretion
[1]; donor 1, AA Conc. 20X
  Lipid Median (median fold change from control): −0.685
[1]; hepatocyte donor 1
  lipid accumulation (in words): reduced lipid accumulation
Albumin; hepatocyte donor 1
  albumin secretion (in words): decreased albumin production at a higher level than the previously described amino acids
Procollagen III
  procollagen III secretion (in words): had no impact on procollagen III secretion

## C[N+](C)(C)C[C@H](O)CC(=O)[O-] [Car, L-carnitine]
Human CCL2 (MCP-1); hepatocyte donor 1
  MCP1 secretion (in words): did not reduce MCP1 secretion
Human CCL2 (MCP-1); hepatocyte donor 2
  MCP1 secretion (in words): did not affect MCP1 secretion
[1]; hepatocyte donor 1
  lipid accumulation (in words): reduced lipid accumulation
[1]; hepatocyte donor 2
  lipid accumulation (in words): reduced lipid accumulation but less than the previously described combinations
Albumin; hepatocyte donor 1
  albumin secretion (in words): did not reduce albumin secretion
Albumin; hepatocyte donor 2
  albumin secretion (in words): reduced albumin secretion
Urea; hepatocyte donor 1
  urea production (in words): No changes in urea production
Urea; hepatocyte donor 2
  urea production (in words): slightly reduced urea production
[3]
  triglyceride level (in words): reduces triglyceride level but the effect was less pronounced than the combinations described previously
Procollagen III
  procollagen III secretion (in words): had no impact on procollagen III secretion
[2]
  alpha SMA stained area (in words): reduced the alpha SMA stained area

## N[C@@H](CO)C(=O)O [S, L-serine]
Human CCL2 (MCP-1); hepatocyte donor 1
  MCP1 secretion (in words): did not reduce MCP1 secretion
Human CCL2 (MCP-1); hepatocyte donor 2
  MCP1 secretion (in words): did not affect MCP1 secretion
[1]; donor 1, AA Conc. 25X
  Lipid Median (median fold change from control): −0.178
[1]; donor 2, AA Conc. 30X
  Lipid Median (median fold change from control): −0.42
[1]; hepatocyte donor 1
  lipid accumulation (in words): reduced lipid accumulation
[1]; hepatocyte donor 2
  lipid accumulation (in words): reduced lipid accumulation but less than the previously described combinations
Albumin; hepatocyte donor 1
  albumin secretion (in words): decreased albumin production at a higher level than the previously described amino acids
Albumin; hepatocyte donor 2
  albumin secretion (in words): reduced albumin secretion
Urea; hepatocyte donor 1
  urea production (in words): No changes in urea production
Urea; hepatocyte donor 2
  urea production (in words): slightly induce urea production
[3]; FFA + TNF, 72 h, two donors, AA Conc 1X, Nac/Car 0 mM
  Triglyceride Level relative to the baseline FFA + TNF, Median: −0.176
[3]
  triglyceride level (in words): didn't have an impact on triglycerides
Procollagen III
  procollagen III secretion (in words): had no impact on procollagen III secretion

## CC[C@H](C)[C@H](N)C(=O)O [I, L-isoleucine]
Human CCL2 (MCP-1); hepatocyte donor 1
  MCP1 secretion (in words): did not reduce MCP1 secretion
[1]; donor 1, AA Conc. 20X
  Lipid Median (median fold change from control): −0.105
[1]; hepatocyte donor 1
  lipid accumulation (in words): reduced lipid accumulation
Albumin; hepatocyte donor 1
  albumin secretion (in words): did not reduce albumin secretion
Urea; hepatocyte donor 1
  urea production (in words): No changes in urea production
Procollagen III
  procollagen III secretion (in words): had no impact on procollagen III secretion

## NC(=O)CC[C@H](N)C(=O)O [Q, L-glutamine]
Human CCL2 (MCP-1); hepatocyte donor 1
  MCP1 secretion (in words): did not reduce MCP1 secretion
[1]; donor 1, AA Conc. 20X
  Lipid Median (median fold change from control): −0.588
[1]; hepatocyte donor 1
  lipid accumulation (in words): reduced lipid accumulation
Albumin; hepatocyte donor 1
  albumin secretion (in words): decreased albumin production at a higher level than the previously described amino acids
Urea; hepatocyte donor 1
  urea production (in words): No changes in urea production
Procollagen III
  procollagen III secretion (in words): decreased procollagen III secretion but at a lower extent than LIRNacCar and LIRQNacSCar
